PMC3678512, “Synthesis and physicochemical characterization of novel phenotypic probes targeting the nuclear factor-kappa B signaling pathway” (Beilstein Journal of Organic Chemistry, 2013)
In brackets after ≈: the same amount, converted by molar mass. Read-outs that look alike come from different tables or passages of the source.

Legend:
[1] = PAMPA (parallel artificial membrane permeability assay); format: in vitro ADME; conditions: for PAMPA Pe, donor pH 5.0: donor pH 5.0, acceptor pH 7.4, compound at 50 μM; for PAMPA Pe, donor pH 6.2: donor pH 6.2, acceptor pH 7.4, compound at 50 μM; for PAMPA Pe, donor pH 7.4: donor pH 7.4, acceptor pH 7.4, compound at 50 μM
Experimental: (§1) The probes were evaluated using known in vitro ADME/T assays to understand their overall pharmacological properties (Table 2). […] The PAMPA (parallel artificial membrane permeability assay) assay is used as an in vitro model of passive, transcellular permeability. An artificial membrane immobilized on a filter is placed between a donor and acceptor compartment. […] It is not yet known whether it represents a species specific CPY450 inhibitor.

JAK2 = molecular target: T1, JAK2 (Homo sapiens, UniProt O60674); test: KINOMEscan (DiscoveRx) selectivity profiling, JAK2; format: binding
T1 construct: purchased DiscoveRx
Source text: (§2) This probe was discovered after two separate screening campaigns totaling ~110,000 compounds.

[2] = tested on: NF-κB activation in HEK 293T cells; test: NF-κB reporter gene assay in HEK 293T cells; format: cell-based, human; conditions: for Selectivity over NF-κB activation in HEK 293T cells: relative to 697 pre-B cell line potency
Source text: (§3) Phenotypic screening for noncanonical NF-κB pathway selective inhibitors of IL-8 production in HEK 293, HEK 293T (ML029) and 697 pre-B cells (ML236 and ML237): Most pathways for NF-κB activation converge on the IκB kinases (IKKs), and more than nine signaling routes have been identified. While IKKs therefore represent attractive targets for drug discovery programs, the selectivity envisioned for an acceptable therapeutic index has remained elusive as inhibitors of IKKs indiscriminately suppress all known NF-κB activation pathways. Within this project, new probes were sought that were not active via the currently known receptor-driven pathways and IκB kinases, but attenuated NF-κB transcriptional activity as measured by a luciferase-based reporter gene assay with validation using a panel of known receptor and kinase-based counter screens.
(§4) Therefore, an HTS campaign was initiated to identify compounds active in these specific cell subtypes by using the established HTS NF-κB reporter gene assay format. This included screening of a larger (~330,600 compound) MLSMR collection to ensure identification of additional chemical scaffolds not previously available. From this campaign two new cell-active NF-κB inhibitors were derived that were both selective against the NF-κB pathway induced by known PKC activators (phorbol myristic acetate (PMA)/ionomycin) and were selective toward the 697 pre-B cell line. It is interesting to note that no compounds meeting probe selectivity criteria were identified within the T cell (HEK 293T) specific assay. The first oxadiazole-based probe ML236 (8) was potent (0.035 μM) in the 697 pre-B cell line and >400-fold selective over both the NF-κB activation in HEK 293T cells and against TNFα-mediated NF-κB activation. In comparison, the second oxazole-based probe 12 is also potent (0.2 μM) in the 697 pre-B cell line and >400-fold selective over both the NF-κB activation in HEK 293T cells and against TNFα mediated NF-κB activation as measured in our reporter gene assay format.

Raf = test: KINOMEscan (DiscoveRx) selectivity profiling, Raf; format: binding; conditions: 10 uM
Source text: as §2

Aqueous solubility = format: physicochemical; conditions: for Solubility (in words): across pH 5 to 7.4
Experimental: as §1

IKKβ = tested on: IKKβ; set-up: method as in PMID 20481485, PMID 20153655; conditions: 4 at concentrations up to 8 μM; cited from earlier work
PKCθ = tested on: PKCθ; set-up: method as in PMID 20481485, PMID 20153655; conditions: 4 at concentrations up to 8 μM; cited from earlier work
[3] = Hepatic microsome stability, mouse; format: in vitro ADME; conditions: compound at 1 μM, 60 min
Experimental: as §1

[4] = tested on: NF-κB activation in 697 pre-B cell line; test: NF-κB reporter gene assay in 697 pre-B cells (PMA/ionomycin induced); format: cell-based; conditions: read-out: Potency in 697 pre-B cell line (NF-κB reporter)
Source text: as §3, §4

TLK1 = molecular target: T2, TLK1 (Homo sapiens, UniProt Q9UKI8); test: KINOMEscan (DiscoveRx) selectivity profiling, TLK1; format: binding
T2 construct: purchased DiscoveRx
T2 sequence (Q9UKI8 1-766): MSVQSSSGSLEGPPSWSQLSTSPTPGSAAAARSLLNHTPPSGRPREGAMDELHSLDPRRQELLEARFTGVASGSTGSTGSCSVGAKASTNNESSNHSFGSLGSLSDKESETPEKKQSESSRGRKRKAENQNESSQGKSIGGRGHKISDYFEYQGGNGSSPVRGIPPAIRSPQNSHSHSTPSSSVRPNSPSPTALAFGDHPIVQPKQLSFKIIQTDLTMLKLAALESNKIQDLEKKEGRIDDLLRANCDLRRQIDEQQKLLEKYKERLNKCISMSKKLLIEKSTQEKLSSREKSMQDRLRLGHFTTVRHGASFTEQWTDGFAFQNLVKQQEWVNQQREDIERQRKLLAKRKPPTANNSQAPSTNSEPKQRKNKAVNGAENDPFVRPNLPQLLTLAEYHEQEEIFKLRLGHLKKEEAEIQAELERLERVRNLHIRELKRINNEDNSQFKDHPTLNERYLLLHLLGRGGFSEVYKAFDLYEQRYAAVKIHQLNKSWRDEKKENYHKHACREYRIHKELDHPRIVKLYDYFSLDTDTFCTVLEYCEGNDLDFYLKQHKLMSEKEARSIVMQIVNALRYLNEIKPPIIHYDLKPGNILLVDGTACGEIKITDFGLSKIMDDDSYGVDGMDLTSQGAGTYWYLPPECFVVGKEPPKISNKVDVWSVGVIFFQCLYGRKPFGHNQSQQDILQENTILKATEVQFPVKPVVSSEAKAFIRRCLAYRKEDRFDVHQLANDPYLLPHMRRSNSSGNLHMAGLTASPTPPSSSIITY
Source text: as §2

PKCβ = tested on: PKCβ; set-up: method as in PMID 20481485, PMID 20153655; conditions: 4 at concentrations up to 8 μM; cited from earlier work
[5] = tested on: NF-κB transcriptional activity in HEK 293 cells; set-up: method as in PMID 20481485; conditions: NF-κB reporter, read-out: IC50 in the HEK 293 cell assay; cited from earlier work
353 kinases = test: KINOMEscan (DiscoveRx) selectivity profiling, panel; format: binding; conditions: 10 uM; out of the 353 kinases surveyed
Source text: as §2

[6] = Hepatic microsome stability, human; format: in vitro ADME; conditions: for Hepatic microsome stability, human (% remaining): compound at 1 μM, 60 min
Experimental: as §1

[7] = Hepatic toxicity in immortalized human hepatocytes; format: cell-based; conditions: Fa2N-4 immortalized human hepatocytes, read-out: Hepatic toxicity LC50
Experimental: as §1

[8] = tested on: TNFα-mediated NF-κB activation; test: TNFα-mediated NF-κB activation reporter gene assay; format: cell-based; conditions: relative to 697 pre-B cell line potency
Source text: as §4

[9] = tested on: TNF-α-dependent IL-8 secretion in MCF-7 cells; test: TNF-α-dependent IL-8 secretion in MCF-7 cells; format: cell-based
[10] = tested on: NOD2-dependent IL-8 secretion in MCF-7 cells; test: NOD2-dependent IL-8 secretion in MCF-7 cells; format: cell-based
[11] = tested on: NOD1 (γ-tri-DAP) dependent IL-8 secretion; test: NOD1 (γ-tri-DAP) dependent IL-8 secretion; format: cell-based
[12] = aqueous medium, pH 6.2, aqueous buffer, read-out: Aqueous solubility pH 6.2
[13] = pH 5.0, read-out: Aqueous solubility pH 5.0
[14] = pH 7.4, read-out: Aqueous solubility pH 7.4
[15] = aqueous medium, aqueous buffer, pH 5.0, read-out: Aqueous solubility pH 5.0
[16] = aqueous medium, pH 7.4, aqueous buffer, read-out: Aqueous solubility pH 7.4

T1 sequence (O60674 whole entry): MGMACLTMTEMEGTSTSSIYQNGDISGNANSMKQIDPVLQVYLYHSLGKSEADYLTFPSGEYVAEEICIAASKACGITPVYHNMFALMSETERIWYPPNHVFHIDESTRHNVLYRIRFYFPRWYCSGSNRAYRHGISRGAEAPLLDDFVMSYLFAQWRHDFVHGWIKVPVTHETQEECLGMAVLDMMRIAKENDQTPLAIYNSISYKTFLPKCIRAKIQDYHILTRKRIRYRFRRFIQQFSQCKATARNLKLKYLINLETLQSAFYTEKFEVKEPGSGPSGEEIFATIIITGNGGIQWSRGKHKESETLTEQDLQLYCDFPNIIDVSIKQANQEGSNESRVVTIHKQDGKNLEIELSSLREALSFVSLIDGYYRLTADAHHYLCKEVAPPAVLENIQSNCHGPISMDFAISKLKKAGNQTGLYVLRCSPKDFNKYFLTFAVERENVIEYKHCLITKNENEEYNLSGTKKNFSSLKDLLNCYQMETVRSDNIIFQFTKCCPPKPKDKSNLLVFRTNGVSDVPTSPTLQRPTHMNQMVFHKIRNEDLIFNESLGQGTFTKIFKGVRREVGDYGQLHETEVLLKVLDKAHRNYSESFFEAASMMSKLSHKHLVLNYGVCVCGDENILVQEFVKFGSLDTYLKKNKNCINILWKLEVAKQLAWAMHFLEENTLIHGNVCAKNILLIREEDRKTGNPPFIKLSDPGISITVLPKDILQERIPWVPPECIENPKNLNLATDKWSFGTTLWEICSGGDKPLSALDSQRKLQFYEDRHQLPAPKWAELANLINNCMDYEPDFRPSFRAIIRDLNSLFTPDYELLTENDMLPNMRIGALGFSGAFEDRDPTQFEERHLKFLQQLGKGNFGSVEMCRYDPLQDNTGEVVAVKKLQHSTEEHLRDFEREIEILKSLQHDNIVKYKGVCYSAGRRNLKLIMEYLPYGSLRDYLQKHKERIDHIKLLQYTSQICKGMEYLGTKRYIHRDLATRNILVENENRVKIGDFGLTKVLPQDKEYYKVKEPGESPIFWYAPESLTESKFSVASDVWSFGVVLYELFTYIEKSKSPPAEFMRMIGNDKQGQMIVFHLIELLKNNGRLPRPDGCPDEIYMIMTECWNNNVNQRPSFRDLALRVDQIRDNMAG

Row | Structure (SMILES) | PAMPA Pe, donor pH 5.0 [1] | PAMPA Pe, donor pH 6.2 [1] | PAMPA Pe, donor pH 7.4 [1] | Solubility (in words) (Aqueous solubility) | solubility (Aqueous solubility; [12]) [µM] | solubility (Aqueous solubility; [13]) [µM] | solubility (Aqueous solubility; [14]) [µM] | Suppression of IKKβ (IKKβ) | Suppression of PKCθ (PKCθ) | Hepatic microsome stability, mouse (% remaining) [3] [% remaining] | IC50 [4] [µM] | Hepatic microsome stability, human (% remaining) [6] [% remaining] | CC50 [7] [µM] | Selectivity over NF-κB activation in HEK 293T cells [2] [fold] | Selectivity against TNFα-mediated NF-κB activation [8] [fold] | solubility (Aqueous solubility; [15]) [µM] | solubility (Aqueous solubility; [16]) [µM] | also measured
1 | Cc1cc2nc(NCCCO)n(CC(=O)c3cc(C(C)(C)C)c(O)c(C(C)(C)C)c3)c2cc1C [Probe 4] | 299 10^−6 cm/s | 710 10^−6 cm/s | 441 10^−6 cm/s | good solubility | 1.1 (≈ 0.512 µg/mL) | 90 (≈ 41.9 µg/mL) | 1.5 (≈ 0.698 µg/mL) | failed to suppress | failed to suppress | 0.5 | > 30 | 26 | > 50 | – | – | – | – | inhibition at 10 µM (JAK2): 53%; IC50 ([2]; Homo sapiens, HEK 293T cells, read-out: Activity in HEK 293T cell line (NF-κB reporter)): > 30 µM; Raf inhibition (Raf): 57%; inhibition at 10 µM (TLK1): 70%; Suppression of PKCβ (PKCβ): failed to suppress; IC50 [5]: 0.07 µM; Number of kinases inhibited >50% (353 kinases): 3
2 | CNC(=O)CCc1nc(-c2ccc(C(C)(C)C)cc2)no1 [Probe 8] | 751 10^−6 cm/s | 755 10^−6 cm/s | 746 10^−6 cm/s | good solubility | 101 (≈ 29 µg/mL) | – | – | – | – | 4.9 | 0.035 | 100 | > 50 | > 400 | > 400 | 92 (≈ 26.4 µg/mL) | 103 (≈ 29.6 µg/mL) | Metabolic stability in human hepatic microsomes (in words) ([6]; one hour of exposure): no apparent instability
3 | CCOc1ccc(-c2nc(CSCC(=O)NC3CC3)c(C)o2)cc1 [Probe 12] | 513 10^−6 cm/s | 541 10^−6 cm/s | 59 10^−6 cm/s | good solubility | 133 (≈ 46.1 µg/mL) | – | – | – | – | 0 | 0.2 | 22.7 | > 50 | > 400 | > 400 | 112 (≈ 38.8 µg/mL) | 160 (≈ 55.4 µg/mL) | –
4 | Cc1ccc(S(=O)(=O)n2c(N)nc3ccccc32)cc1 [Probe 13] | 491 10^−6 cm/s | 562 10^−6 cm/s | 382 10^−6 cm/s | moderate solubility | – | 7.0 (≈ 2.01 µg/mL) | 7.0 (≈ 2.01 µg/mL) | – | – | 0.8 | – | 41.8 | > 50 | – | – | – | – | solubility (Aqueous solubility; pH 6.2, read-out: Aqueous solubility pH 6.2): 5.9 µM (≈ 1.7 µg/mL); Inhibition of TNF-α-dependent IL-8 secretion [9]: neither inhibited; Inhibition of NOD2-dependent IL-8 secretion [10]: neither inhibited; Inhibition of NOD1 (γ-tri-DAP) dependent IL-8 secretion [11]: selectively inhibited IL-8 secretion
5 | CN[C@@H]1C[C@H]2O[C@@](C)([C@@H]1OC)n1c3ccccc3c3c4c(c5c6ccccc6n2c5c31)C(=O)NC4 [staurosporine, reference compound] | – | – | – | – | – | – | – | potent inhibition | potent inhibition | – | – | – | – | – | – | – | – | –
